From patent US6017933A, “Mannich bases of conjugated styryl ketones” (University of Saskatchewan Technologies Inc., priority 1999, dated 2000)

Assays:
Molt 4/C8 cells = assay: Cytotoxicity, Molt 4/C8 human T-lymphocytes; conditions: for TIL1210 (Molt 4/C8 cells): IC50 T-lymphocytes (Molt 4/C8)/IC50 L1210; for TIP388 (Molt 4/C8 cells): IC50 T-lymphocytes (Molt 4/C8)/IC50 P388; for TIht (Molt 4/C8 cells): IC50 T-lymphocytes (Molt 4/C8)/IC50 human tumors; for IC50: read-out: Molt 4/C8 cells IC50
L1210 cells = assay: Cytotoxicity, murine L1210 leukemic cells; format: cell-based; conditions: Mus musculus, mean
human tumors = assay: Cytotoxicity, human tumor cell line panel (approximately 55 lines); conditions: for Selective toxicity towards leukemia: human tumor screen; for IC50: read-out: human tumors IC50, mean graph midpoint, approximately 55 cell lines, hydrobromide salts used for 4a, 11a-e
CEM cells = assay: Cytotoxicity, CEM human T-lymphocytes; conditions: for IC50: Homo sapiens, CCRF-CEM, read-out: CEM cells IC50; for TIL1210 (CEM cells): IC50 T-lymphocytes (CEM)/IC50 L1210; for TIP388 (CEM cells): IC50 T-lymphocytes (CEM)/IC50 P388; for TIht (CEM cells): IC50 T-lymphocytes (CEM)/IC50 human tumors
P388 cells = assay: Cytotoxicity, murine P388 leukemic cells (P388 D1); conditions: for IC50: read-out: P388 cells IC50

| SMILES | TIL1210 (Molt 4/C8 cells) (Molt 4/C8 cells) | TIP388 (Molt 4/C8 cells) (Molt 4/C8 cells) | TIht (Molt 4/C8 cells) (Molt 4/C8 cells) | IC50 (Molt 4/C8 cells) [µM] | IC50 (L1210 cells) [µM] | Selective toxicity towards leukemia (human tumors) | IC50 (human tumors) [µM] | IC50 (CEM cells) [µM] | TIL1210 (CEM cells) (CEM cells) | TIP388 (CEM cells) (CEM cells) | TIht (CEM cells) (CEM cells) | IC50 (P388 cells) [µM] | potency relative to melphalan, P388 (P388 cells) | activity relative to melphalan, human tumors (human tumors) |
| --- | --- | --- | --- | --- | --- | --- | --- | --- | --- | --- | --- | --- | --- | --- |
| CCN(CC)CCC(=O)/C=C/c1ccccc1 [Compound 1a] | 1.66 | 25.04 | 4.36 | 42.6 | 25.7 | this property was also noted | 9.77 | 33.9 | 1.32 | 19.92 | 3.47 | 1.7 | – | – |
| CCN(CC)CCC(=O)/C=C/c1ccc(Cl)cc1 [Compound 1b] | 0.98 | 134.6 | – | 40.4 | 41 | – | – | 53.3 | 1.30 | 177.6 | – | 0.3 | more than half the potency of melphalan | – |
| CCN(CC)CCC(=O)/C=C/c1ccc(Cl)c(Cl)c1 [Compound 1c] | 0.74 | 116.5 | 11.96 | 45.4 | 61.2 | – | 3.8 | 55.8 | 0.91 | 143.2 | 14.70 | 0.39 | more than half the potency of melphalan | – |
| CCN(CC)CCC(=O)/C=C/c1ccc(C)cc1 [Compound 1d] | 1.05 | 50.65 | – | 55.7 | 52.9 | – | – | 48.6 | 0.92 | 44.19 | – | 1.1 | – | – |
| CCN(CC)CCC(=O)/C=C/c1ccc(OC)cc1 [Compound 1e] | 1.17 | 77.69 | – | 52.1 | 44.3 | – | – | 48.6 | 1.10 | 72.55 | – | 0.67 | – | – |
| CCN(CC)CCC(=O)c1ccccc1 [Compound 4a] | 0.86 | 6.68 | 0.69 | 17.4 | 20.3 | – | 25.1 | 38.5 | 1.90 | 14.81 | 1.53 | 2.6 | – | – |
| CCN(CC)CCC(=O)c1ccc(Cl)cc1 [Compound 4b] | 0.62 | 7.13 | – | 22.8 | 36.9 | – | – | 40 | 1.08 | 12.50 | – | 3.2 | – | – |
| CCN(CC)CCC(=O)c1ccc(Cl)c(Cl)c1 [Compound 4c] | – | – | – | – | – | – | – | – | – | – | – | – | more than half the potency of melphalan | – |
| CCN(CC)CCC(=O)c1ccc(C)cc1 [Compound 4d] | 2.96 | 28.97 | 2.42 | 63.7 | 21.5 | – | 26.3 | 64.1 | 2.98 | 29.15 | 2.44 | 2.2 | – | – |
| O=C(/C=C/c1ccccc1)CCN1CCN(CCC(=O)/C=C/c2ccccc2)CC1 [Compound 8a] | 0.95 | 8.89 | 0.46 | 5.51 ± 2.73 | 5.78 | – | 12 | 5.55 | 0.96 | 3.95 | 0.46 | 0.62 | – | – |
| O=C(CCN1CCN(CCC(=O)c2ccccc2)CC1)c1ccccc1 [Compound 8b] | 2.69 | 9.20 | – | 26.1 | 9.71 | – | – | 16 | 1.65 | 5.64 | – | 2.84 | – | – |
| CCN1CCC(O)(/C=C/c2ccccc2)C(C(=O)/C=C/c2ccccc2)C1 (stereo not drawn) [Compound 9a] | 5.64 | 21.36 | 10.88 | 29.9 | 5.3 | – | 2.75 | 16.5 | 3.12 | 11.81 | 6.02 | 1.4 | – | – |
| CCN1CCC(O)(/C=C/c2ccc(Cl)c(Cl)c2)C(C(=O)/C=C/c2ccc(Cl)c(Cl)c2)C1 (stereo not drawn) [Compound 9c] | – | – | – | – | – | – | 0.38 | – | – | – | – | 0.4 | more than half the potency of melphalan | – |
| CCN1CCC(O)(/C=C/c2ccc(OC)cc2)C(C(=O)/C=C/c2ccc(OC)cc2)C1 (stereo not drawn) [Compound 9e] | 0.81 | 4.14 | 2.49 | 20.7 | 25.6 | this property was also noted | 8.31 | 11.7 | 0.46 | 2.35 | 1.41 | 5 | – | – |
| CC[N+]1(C)CCC(O)(/C=C/c2ccc(C)cc2)C(C(=O)/C=C/c2ccc(C)cc2)C1 (stereo not drawn) [Compound 10d] | 0.45 | 9.98 | – | 6.19 ± 0.7 | 13.8 | – | – | 3.92 | 0.28 | 6.32 | – | 0.62 | – | – |
| CCN1CCC(O)(c2ccccc2)C(C(=O)c2ccccc2)C1 (stereo not drawn) [Compound 11a] | 1.80 | 33.78 | 1.20 | 36.1 | 20.1 | – | 30.2 | 45.7 | 2.28 | 42.70 | 1.51 | 1.07 | – | – |
| CCN1CCC(O)(c2ccc(Cl)cc2)C(C(=O)c2ccc(Cl)cc2)C1 (stereo not drawn) [Compound 11b] | 3.68 | 11.21 | 0.69 | 57.6 | 15.7 | – | 83.2 | 102 | 6.52 | 19.89 | 1.23 | 5.14 | – | – |
| CCN1CCC(O)(c2ccc(Cl)c(Cl)c2)C(C(=O)c2ccc(Cl)c(Cl)c2)C1 (stereo not drawn) [Compound 11c] | – | – | – | – | – | – | 16.6 | – | – | – | – | 3.11 | – | – |
| CCN1CCC(O)(c2ccc(C)cc2)C(C(=O)c2ccc(C)cc2)C1 (stereo not drawn) [Compound 11d] | 0.89 | 3.97 | 1.36 | 34.2 | 38.2 | – | 25.1 | 38.7 | 1.01 | 4.50 | 1.54 | 8.6 | – | – |
| CCN1CCC(O)(c2ccc(OC)cc2)C(C(=O)c2ccc(OC)cc2)C1 (stereo not drawn) [Compound 11e] | 2.94 | 9.51 | 2.04 | 39.7 | 13.5 | – | 19.5 | 39.9 | 2.96 | 9.57 | 2.05 | 4.17 | – | – |
| CCN1CCC(O)(c2ccc(O)cc2)C(C(=O)c2ccc(O)cc2)C1 (stereo not drawn) [Compound 11f] | 4.32 | 30.09 | 2.02 | 42.1 | 9.75 | – | 20.9 | 42.6 | 4.37 | 30.46 | 2.04 | 1.4 | – | – |
| CC[N+]1(C)CCC(O)(c2ccccc2)C(C(=O)c2ccccc2)C1 (stereo not drawn) [Compound 12a] | – | – | – | – | – | Selective toxicity towards leukemia was observed | 12.9 | – | – | – | – | 1.3 | – | – |
| CC[N+]1(C)CCC(O)(c2ccc(Cl)cc2)C(C(=O)c2ccc(Cl)cc2)C1 (stereo not drawn) [Compound 12b] | – | – | – | – | – | Selective toxicity towards leukemia was observed | 12.9 | – | – | – | – | 1.5 | – | – |
| CC[N+]1(C)CCC(O)(c2ccc(Cl)c(Cl)c2)C(C(=O)c2ccc(Cl)c(Cl)c2)C1 (stereo not drawn) [Compound 12c] | 0.84 | 12.23 | 2.95 | 28.1 | 33.6 | – | 9.54 | 25.8 | 0.77 | 11.20 | 2.70 | 2.3 | – | – |
| CC[N+]1(C)CCC(O)(c2ccc(C)cc2)C(C(=O)c2ccc(C)cc2)C1 (stereo not drawn) [Compound 12d] | – | – | – | – | – | – | 50.1 | – | – | – | – | 2.1 | – | five times more potent than melphalan |
| CC[N+]1(C)CCC(O)(c2ccc(OC)cc2)C(C(=O)c2ccc(OC)cc2)C1 (stereo not drawn) [Compound 12e] | – | – | – | – | – | Selective toxicity towards leukemia was observed | 10.2 | – | – | – | – | 0.98 | – | – |
